Source: publication PMC7434514 (ChemMedChem, 2020)
Values joined by “and” are separate entries in the source; they are usually repeats but may differ in a detail not shown here. Equal values may be shown once.

Assays:
NDM-1 [1] = target: T1, NDM-1 (Klebsiella pneumoniae, UniProt C7C422); assay: biochemical; settings: for Percent Inhibition against NDM-1: meropenem substrate
Target sequence in this assay (C7C422 36-270): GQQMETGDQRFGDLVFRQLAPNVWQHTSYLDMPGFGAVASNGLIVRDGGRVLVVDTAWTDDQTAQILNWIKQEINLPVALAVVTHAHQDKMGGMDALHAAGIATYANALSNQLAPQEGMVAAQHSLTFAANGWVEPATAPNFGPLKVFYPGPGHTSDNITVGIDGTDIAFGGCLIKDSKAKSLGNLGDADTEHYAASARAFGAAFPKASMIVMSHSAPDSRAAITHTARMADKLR

NDM-1 [2] = target: T1, NDM-1; assay type: binding; settings: 5 μM NDM-1, 200 μM inhibitor; native NDM-1 TM = 55.95±0.06 °C
Target sequence in this assay (C7C422 29-270, looked up): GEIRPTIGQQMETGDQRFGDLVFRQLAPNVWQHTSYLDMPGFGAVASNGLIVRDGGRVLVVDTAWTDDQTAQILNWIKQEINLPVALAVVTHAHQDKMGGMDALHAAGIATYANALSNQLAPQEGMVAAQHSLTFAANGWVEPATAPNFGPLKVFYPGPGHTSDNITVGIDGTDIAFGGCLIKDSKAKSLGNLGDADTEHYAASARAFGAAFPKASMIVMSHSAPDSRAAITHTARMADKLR

VIM-2 = VIM-2 (Escherichia coli, UniProt Q5U7L7); assay type: binding; settings: VIM-2 10 μM, inhibitor 50 μM, approximately 5 min incubation
NDM-1 [3] = target: T1, NDM-1; assay type: binding; settings: NDM-1 10 μM, inhibitor 50 μM, approximately 5 min incubation
Target sequence in this assay (C7C422 37-270 limits assumed): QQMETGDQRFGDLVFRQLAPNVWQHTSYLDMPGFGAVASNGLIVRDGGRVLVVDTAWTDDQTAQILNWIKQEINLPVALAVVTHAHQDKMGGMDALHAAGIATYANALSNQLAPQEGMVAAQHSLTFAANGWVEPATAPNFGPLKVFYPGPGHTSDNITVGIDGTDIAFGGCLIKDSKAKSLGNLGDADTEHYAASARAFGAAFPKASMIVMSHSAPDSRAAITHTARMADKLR

NDM-1 [4] = settings: read-out: IC50 against NDM-1; ref 19e, 20; cited from earlier work
[5] = test system: NDM-1 expressing Klebsiella pneumoniae; settings: mouse infected with NDM-1 expressing Klebsiella pneumoniae; ref 19e, 20; cited from earlier work
[6] = read-out: Kd for Zn(II) ions; cited from earlier work
[7] = read-out: Percent Inhibition against NDM-1

**Q.** With `O=C(O)CN(CC(=O)O)S(=O)(=O)c1cc2ccccc2s1` [Compound 21m, 2,2’-((Benzo[b]thiophen-2-ylsulfonyl)azanediyl)diacetic acid] as the molecule, how does the “Percent Inhibition against NDM-1” value (NDM-1 [1]; compound at 250 μM) read?
**A.** ~ 20%

**Q.** Which inhibition at 250 µM (NDM-1 [1]; [7]) does the source give for `O=C(O)CN(CC(=O)O)Cc1ccc(-c2ccccc2)cc1` [Compound 21b, 2,2’-(([1,1’-Biphenyl]-4-ylmethyl)azanediyl)diacetic acid] here?
**A.** 56 to 76%

**Q.** For `O=C(O)CN(CC(=O)O)Cc1ccoc1` [Compound 21i, 2,2’-((Furan-3-ylmethyl)azanediyl)diacetic acid], which inhibition at 250 µM (NDM-1 [1]; [7]) is on record?
**A.** ~99%

**Q.** What about the “∆Tm” value (NDM-1 [2]) of the same molecule?
**A.** 3.4±0.3 °C

**Q.** Which “Complex observed by native ESI-MS” value (VIM-2) does the source give for `O=C(O)CN(CCc1cccs1)CC(=O)O` [Compound 23e, 2,2’-((2-(Thiophen-2-yl)ethyl)azanediyl)diacetic acid] here?
**A.** 2Zn: VIM-2:23e

**Q.** What about the “Complex observed by native ESI-MS” value (NDM-1 [3]) of the same molecule?
**A.** 2Zn: NDM-1:23e

**Q.** And the “∆Tm” value (NDM-1 [2])?
**A.** 1.7±0.2 °C

**Q.** Which “Percent Inhibition against NDM-1” value (NDM-1 [1]; compound at 250 μM) does the source give for `O=C(O)CN(CC(=O)O)Cc1ccccc1` [Compound 11] here?
**A.** 65%

**Q.** For `O=C(O)c1cccc(C(=O)O)n1` [DPA, dipicolinic acid, reference compound], which “Complex observed by native ESI-MS” value (VIM-2) is on record?
**A.** 0Zn: VIM-2:DPA

**Q.** And the “Complex observed by native ESI-MS” value (NDM-1 [3])?
**A.** 0Zn: NDM-1 and 1Zn: NDM-1 and 2Zn: NDM-1

**Q.** What about the “∆Tm” value (NDM-1 [2]) of the same molecule?
**A.** −14.5±0.2 °C

**Q.** What does the source list for `N[C@H](CN[C@H](CN[C@@H](CC(=O)O)C(=O)O)C(=O)O)C(=O)O` [AMA, Aspergillomarasmine A]?
**A.** IC50 (NDM-1 [4]): 4 to 7 µM; ability to restore meropenem activity in vivo [5]: restore meropenem activity

**Q.** Which results are given for `O=C(O)CNCC(=O)O` [IDA, Iminodiacetic acid]?
**A.** inhibition at 200 µM (NDM-1 [1]; [7]): 48%; Kd [6]: 32 µM

**Q.** Which Ki (NDM-1 [1]) does the source give for `O=C(O)CN(CCc1ccco1)CC(=O)O` [Compound 23f, 2,2’-((2-(Furan-2-yl)ethyl)azanediyl)diacetic acid] here?
**A.** 2.6 µM

**Q.** What about the “fold improvement in inhibitory activity” value (NDM-1 [1]; ethyl-linker (23f) versus methyl-linker (23b)) of the same molecule?
**A.** 2.5 fold

**Q.** What about the “Complex observed by native ESI-MS” value (VIM-2) of the same molecule?
**A.** 2Zn: VIM-2:23f

**Q.** And the “Complex observed by native ESI-MS” value (NDM-1 [3])?
**A.** 2Zn: NDM-1:23f

**Q.** And the “∆Tm” value (NDM-1 [2])?
**A.** 1.5±0.1 °C

**Q.** Which “Percent Inhibition against NDM-1” value (NDM-1 [1]; compound at 250 μM) does the source give for `CN(CCC(=O)O)CC(=O)O` [Compound 13a, 3-((Carboxymethyl)(methyl)amino)propanoic acid] here?
**A.** complete loss of activity

**Q.** For `Cc1ccc(CN(CC(=O)O)CC(=O)O)o1` [Compound 23d, 2,2’-(((5-Methylfuran-2-yl)methyl)azanediyl)diacetic acid], which “Complex observed by native ESI-MS” value (VIM-2) is on record?
**A.** 2Zn: VIM-2:23d

**Q.** What about the “Complex observed by native ESI-MS” value (NDM-1 [3]) of the same molecule?
**A.** 2Zn: NDM-1:23d

**Q.** And the “∆Tm” value (NDM-1 [2])?
**A.** 3.4±0.2 °C

**Q.** Which “Percent Inhibition against NDM-1” value (NDM-1 [1]; compound at 250 μM) does the source give for `O=C(O)CN(CC(=O)O)S(=O)(=O)Cc1ccccc1` [Compound 21k, 2,2’-((Benzylsulfonyl)azanediyl)diacetic acid] here?
**A.** complete loss of activity

**Q.** For `O=C(O)CN(CCc1ccccc1)CC(=O)O` [Compound 21a, 2,2’-(Phenethylazanediyl)diacetic acid], which inhibition at 250 µM (NDM-1 [1]; [7]) is on record?
**A.** 56 to 76%

**Q.** What does the source list for `Cc1ccc(CN(CC(=O)O)CC(=O)O)s1` [Compound 23c, 2,2’-(((5-Methylthiophen-2-yl)methyl)azanediyl)diacetic acid]?
**A.** Complex observed by native ESI-MS (VIM-2): 2Zn: VIM-2:23c; Complex observed by native ESI-MS (NDM-1 [3]): 2Zn: NDM-1:23c

**Q.** With `O=C(O)CN(CCN(CC(=O)O)CC(=O)O)CC(=O)O` [EDTA, reference compound] as the molecule, how does the “Complex observed by native ESI-MS” value (NDM-1 [3]) read?
**A.** metal free NDM-1

**Q.** Which “Percent Inhibition against NDM-1” value (NDM-1 [1]; compound at 200 μM) does the source give for `CN(CC(=O)O)CC(=O)O` [Compound 1] here?
**A.** 80%

**Q.** What about the “Percent Inhibition against NDM-1” value (NDM-1 [1]; compound at 250 μM) of the same molecule?
**A.** 90%

**Q.** What about the “Complex observed by native ESI-MS” value (VIM-2) of the same molecule?
**A.** 2Zn: VIM-2:1

**Q.** And the “Complex observed by native ESI-MS” value (NDM-1 [3])?
**A.** 2Zn: NDM-1:1

**Q.** What about the “∆Tm” value (NDM-1 [2]) of the same molecule?
**A.** 1.9±0.2 °C

**Q.** Which “∆Tm” value (NDM-1 [2]) does the source give for `O=C(O)CN(CC(=O)O)Cc1ccc(Br)s1` [Compound 23g, 2,2’-(((5-Bromothiophen-2-yl)methyl)azanediyl)diacetic acid] here?
**A.** 3.0±0.3 °C

**Q.** Which “∆Tm” value (NDM-1 [2]) does the source give for `O=C(O)CN(CC(=O)O)Cc1ccco1` [Compound 23b, 2,2’-((Furan-2-ylmethyl)azanediyl)diacetic acid] here?
**A.** 1.6±0.4 °C

**Q.** With `O=C(O)CN(CCP(=O)(O)O)Cc1ccccc1` [Compound 15, N-Benzyl-N-(2-phosphonoethyl)glycine] as the molecule, how does the “Percent Inhibition against NDM-1” value (NDM-1 [1]; compound at 250 μM) read?
**A.** no inhibition

**Q.** For `O=C(O)CN(CC(=O)O)S(=O)(=O)c1ccccc1` [Compound 21j, 2,2’-((Phenylsulfonyl)azanediyl)diacetic acid], which “Percent Inhibition against NDM-1” value (NDM-1 [1]; compound at 250 μM) is on record?
**A.** complete loss of activity

**Q.** For `O=C(O)CN(CC(=O)O)S(=O)(=O)c1cccs1` [Compound 21l, 2,2’-((Thiophen-2-ylsulfonyl)azanediyl)diacetic acid], which “Percent Inhibition against NDM-1” value (NDM-1 [1]; compound at 250 μM) is on record?
**A.** ~ 20%

**Q.** Which inhibition at 250 µM (NDM-1 [1]; [7]) does the source give for `O=C(O)CN(CC(=O)O)Cc1cccc(-c2ccccc2)c1` [Compound 21c, 2,2’-(([1,1’-Biphenyl]-3-ylmethyl)azanediyl)diacetic acid] here?
**A.** 56 to 76%

**Q.** With `O=C(O)CN(Cc1ccccc1)Cc1nnn[nH]1` [Compound 17, N-((1H-tetrazol-5-yl)methyl)-N-benzylglycine] as the molecule, how does the “Percent Inhibition against NDM-1” value (NDM-1 [1]; compound at 250 μM) read?
**A.** comparable to that of 11

**Q.** For `O=C(O)CN(CC(=O)O)Cc1ccsc1` [Compound 21h, 2,2’-((Thiophen-3-ylmethyl)azanediyl)diacetic acid], which inhibition at 250 µM (NDM-1 [1]; [7]) is on record?
**A.** 64%

**Q.** For `O=C(O)CCN(CC(=O)O)Cc1ccccc1` [Compound 13b, 3-(Benzyl(carboxymethyl)amino)propanoic acid], which “Percent Inhibition against NDM-1” value (NDM-1 [1]; compound at 250 μM) is on record?
**A.** complete loss of activity

**Q.** For `O=C(O)CN(CC(=O)O)Cc1cccs1` [Compound 23a, 2,2’-((Thiophen-2-ylmethyl)azanediyl)diacetic acid], which “∆Tm” value (NDM-1 [2]) is on record?
**A.** 3.1±0.1 °C
